Test results: US20200247855A1, “THERAPY AND DIAGNOSTICS” (OXFORD UNIVERSITY INNOVATION LIMITED, priority 2017, published 2020)
Positions of bridges follow the written chain, without caps; N, C: chain ends. Residues, ends and D or L forms follow the SMILES beside them.

What was measured:
[1] = target: T1, CXCL9_HUMAN (Homo sapiens, UniProt Q07325); assay: Yeast surface display (YSD) FACS binding; settings: FACS re-test; mean percent shift where several clones
T1 sequence (Q07325 23-125): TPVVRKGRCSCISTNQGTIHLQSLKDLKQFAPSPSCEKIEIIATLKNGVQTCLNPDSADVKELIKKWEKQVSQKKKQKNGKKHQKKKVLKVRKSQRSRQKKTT
Description: Table 1. Tick CKBPs described in PCT/GB2017/050563 and [17]. Tick peptide sequences isolated in yeast surface display fluorescent-activated cell sorting (FACS) screens using a labelled chemokine. Identity with Evasin-1, 4 or 3 was calculated using BLAST. Abbreviations: IXORI—Ixodes ricinus, RHISA—Rhipicephalus sanguineus, AMBMA—Amblyomma maculatum, AMBPA—Amblyomma parvum, AMBTR—Amblyomma triste, AMBAM—Amblyomma americanum, AMBCA—Amblyomma cajennense, RHIPU—Rhipicephalus pulchellus. Table 2A-C. Binding characteristics of tick CKBPs previously disclosed (PCT/GB2017/050563 and [17]). All members of the human chemokine family[164] are listed in column 1. Binding to human chemokines was determined for 14 tick CKBPs using biolayer interferometry (BLI) with calculated Kd shown as Molar (Moles/Litre). […] Association, equilibrium and dissociation data were analysed using Octet software to create corresponding fitted curves, and used to calculate Kd. For yeast surface display, (YSD) background fluorescence was controlled for by using either an empty vector or by omitting the chemokine (i.e. using streptavidin-Alexa647 alone). An arbitrary threshold of >3 fold over background mean fluorescence intensity was chosen to describe confirmed re-tests. Where binding was detected data are indicated as “YES”. […] Data was analysed using GraphPad Prism to determine IC50, which is shown as Molar (Moles/Litre). […]

[2] = target: T2, CCL8_HUMAN (Homo sapiens, UniProt P80075); assay: Neutralisation of chemokine induced THP-1 cell migration; format: cell-based; settings: single concentration of peptide; EC80 CCL8 5.8 nM
T2 sequence (P80075 24-99): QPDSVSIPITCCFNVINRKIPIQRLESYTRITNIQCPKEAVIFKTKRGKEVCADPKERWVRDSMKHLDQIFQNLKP
Description: (§1) Table 1. Tick CKBPs described in PCT/GB2017/050563 and [17]. Tick peptide sequences isolated in yeast surface display fluorescent-activated cell sorting (FACS) screens using a labelled chemokine. Identity with Evasin-1, 4 or 3 was calculated using BLAST. Abbreviations: IXORI—Ixodes ricinus, RHISA—Rhipicephalus sanguineus, AMBMA—Amblyomma maculatum, AMBPA—Amblyomma parvum, AMBTR—Amblyomma triste, AMBAM—Amblyomma americanum, AMBCA—Amblyomma cajennense, RHIPU—Rhipicephalus pulchellus. Table 2A-C. Binding characteristics of tick CKBPs previously disclosed (PCT/GB2017/050563 and [17]). All members of the human chemokine family[164] are listed in column 1. Binding to human chemokines was determined for 14 tick CKBPs using biolayer interferometry (BLI) with calculated Kd shown as Molar (Moles/Litre). Binding data for 17 other novel tick CKBPs was assayed using yeast surface display[17,166],with positive binding results shown as “YES”. For biolayer interferometry, His-tagged purified tick CKBP was bound to a Ni-NINTA sensor on an OctetRed® 384 system, and then binding to each chemokine listed (with the exception of CCL25, CCL26, CXCL16, CXCL17, CXCL4L1, XCL2) was assayed in a cross-binding screen at a chemokine concentration of 300 nM as described. For those chemokines showing binding to a tick CKBP in the cross-binding screen, binding assays were repeated using different doses of chemokine. Association, equilibrium and dissociation data were analysed using Octet software to create corresponding fitted curves, and used to calculate Kd. For yeast surface display, (YSD) background fluorescence was controlled for by using either an empty vector or by omitting the chemokine (i.e. using streptavidin-Alexa647 alone). An arbitrary threshold of >3 fold over background mean fluorescence intensity was chosen to describe confirmed re-tests. Where binding was detected data are indicated as “YES”. […] For yeast surface display data, empty cells represent chemokines that were not tested. Binding data published in relation to previously described tick CKBPs (Evasins-1, 4 and 3) is also shown for comparison in each of FIGS. 2A-C, with the relevant data obtained from publications: [20-22,32]. Table 3: Neutralisation of human chemokines by tick CKBPs previously disclosed (PCT/GB2017/050563 and [17]). Neutralising activity was determined using a quantitative THP1 cell migration assay in a 96-well Boyden chamber with chemokine in the bottom chamber as described. Cells migrating through to the bottom chamber at 4 hours were counted using flow cytometry in a 96 well plate format. IC50 for neutralisation was determined at the chemokine EC80 dose as determined using a range of tick CKBP concentrations. Data was analysed using GraphPad Prism to determine IC50, which is shown as Molar (Moles/Litre). Empty cells represent experiments not done. Table 4—Other previously described tick CKBPs. Tick CKBPs that were also described in PCT/GB2017/050563 and Singh et al. are indicated in “Notes”. Table 5.—Novel tick CKBPs of the invention. Table 6. […] The peptide sequence prefix indicates the identity, and suffix indicate the tick species as follows: AMBCA, Amblyomma cajennense and IXORI, Ixodes ricinus. […] Individual yeast clones recovered from the library were re-tested using a FACS (fluorescence activated cell sorting), experiment. The binding of the peptide to the chemokine was assayed by measuring the percent (%), of yeast cells expressing the given peptide that exceeded a background threshold set by measuring the fluorescence of the yeast library pool treated with streptavidin-[…] alone. When more than one independent yeast clone was isolated for a given peptide-chemokine combination, the mean percent shift was calculated and reported in column 3.

[3] = target: T3, CCL3_HUMAN (Homo sapiens, UniProt P10147); assay: as above; format: cell-based; settings: single concentration of peptide; EC80 CCL3 3.5 nM
T3 sequence (P10147 24-92): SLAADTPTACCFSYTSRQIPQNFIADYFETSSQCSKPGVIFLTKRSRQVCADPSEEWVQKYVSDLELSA
Description: as §1

[4] = target: CCL2_HUMAN (Homo sapiens, UniProt P13500); assay: as above; format: cell-based; settings: single concentration of peptide; EC80 CCL2 1.2 nM
Sequence of CCL2_HUMAN (P13500 24-99): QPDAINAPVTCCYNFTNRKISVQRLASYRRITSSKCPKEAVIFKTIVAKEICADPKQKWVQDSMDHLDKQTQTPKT
Description: as §1

[5] = target: CCL7_HUMAN (Homo sapiens, UniProt P80098); assay: as above; format: cell-based; settings: single concentration of peptide; EC80 CCL7 7.2 nM
Sequence of CCL7_HUMAN (P80098 24-99): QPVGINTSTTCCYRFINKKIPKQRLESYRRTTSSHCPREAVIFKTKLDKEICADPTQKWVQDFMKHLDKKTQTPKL
Description: as §1

[6] = target: T4, human CCL2-647 (Homo sapiens, UniProt P13500); assay: Fluorescent chemokine binding to THP-1 cells (flow cytometry); format: cell-based; settings: CCL2-647 1.2 nM, read-out: IC50 against CCL2-647 induced THP-1 cellular fluorescence
T4 construct: purchased Almac (UK)
T4 sequence (P13500 24-99): as the sequence (P13500 24-99) above
Description: Data are shown as mean of two technical replicates. […] Curves were fitted with 4 parameters to estimate IC50.
Fluorescent chemokine (conjugated to AlexaFluor-647) binding to THP-1 cells results in an increase in the cellular fluorescence intensity, which is quantitatively measured using flow cytometry.
Fluorescent Chemokine/Receptor Blocking Assay CCL8-647 (2.5 nM, final) or […] (1.2 nM, final) was incubated for 30 minutes with varying doses of peptide (0-100 μM, final concentration) in 50 μL assay buffer (RPMI-1640+L-glutamine (4 mM)+10% heat treated fetal bovine serum+0.2% DMSO) at 37° C. This mixture was then added to 50,000 THP-1 cells in a 96-well v-bottomed plated to give a final volume of 100 μL, and everything incubated together for a further 30 minutes at 37° C. Following this time, the plate was centrifuged, the supernatant flicked off, and the cells resuspended in 150 μL ice cold PBSA. This was repeated twice more and the cells were finally resuspended in 150 μL ice cold PBSA. The median fluorescence intensity of 10,000 cells on the RL-1 channel was determined using an ATTUNE flow cytometer and plotted as function of peptide concentration and the data fitted to an inhibitor response curve with 4 parameters using Graph Pad prism 6. Experiments were performed as two technical and three biological replicates.

Molecule: P1124_IXORI: novel CXC-binding tick CKBP, Ixodes ricinus (DSKGTSDSQDSTKSIKVDFCETNCTKTDGGWTGCTGDCICVSVGDSIEGRCMDFG; listed as Ixodes ricinus)
- Chemokines bound in yeast surface display and % cells over threshold fluorescence: CXCL9_HUMAN [1]: CXCL9_HUMAN 31%

Molecule: CC(C)[C@@H]1NC(=O)[C@@H]2CCCN2C(=O)[C@H](CCCCN)NC(=O)[C@H](Cc2ccccc2)NC(=O)[C@H](Cc2ccccc2)NC(=O)[C@H](CC(=O)O)NC(=O)[C@H](CCC(=O)O)NC(=O)[C@H](Cc2ccc(O)cc2)NC(=O)[C@H](CC(=O)O)NC(=O)[C@H](CCC(=O)O)NC(=O)[C@H](CC(=O)O)NC(=O)[C@H](CCC(=O)O)NC(=O)[C@H](Cc2ccc(O)cc2)NC(=O)CSC[C@@H](C(=O)N[C@@H](Cc2ccc(O)cc2)C(=O)N[C@@H](Cc2ccccc2)C(N)=O)NC(=O)[C@H]([C@@H](C)O)NC1=O [BK1.2] ({CH2CO}-YEDEDYEDFFKPVTCYF-NH2; thioether N-15)
- Effect on CCL8-induced THP-1 cell migration [2]: reduced CCL8 induced cell migration to baseline levels
- Effect on CCL3-induced THP-1 cell migration [3]: significantly reduced
- Effect on CCL2-induced THP-1 cell migration [4]: stronger effect
- Effect on CCL7-induced THP-1 cell migration [5]: stronger effect
- IC50 [6]: 6.3 µM
